Test results as given in patent publication US9981940B2, “Aryl sulfide derivatives and aryl sulfoxide derivatives as acaricides and insecticides” (BAYER CROPSCIENCE AKTIENGESELLSCHAFT, priority 2013, dated 2018).

Assays:
[1] = log P by HPLC (OECD Guideline 117), method [a] acidic range; format: physicochemical; details: for logP[a]: HPLC, method [a] acidic range; for chromatographic logP: reversed-phase C18 HPLC column, acidic range
Procedure: (§1) The log P values were determined analogously to OECD Guideline 117 (EC Directive 92/69/EEC) by HPLC (high-performance liquid chromatography) using reversed-phase columns (C 18), by the following methods:
[a] The LC-MS determination in the acidic range is effected at pH 2.7 with 0.1% aqueous formic acid and acetonitrile (contains 0.1% formic acid) as eluents; linear gradient from 10% acetonitrile to 95% acetonitrile.

[2] = tested on: Tetranychus urticae; assay: Tetranychus urticae spray test, OP-resistant (TETRUR); format: in vivo; details: after 6 days; for pest or weed control at 500 g/ha: Tetranychus urticae, 144 h, read-out: efficacy
How it was run: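 Bean leaf discs infested with all stages of an OP-resistant Tetranychus urticae strain sprayed with compound in acetone/DMF with alkylaryl polyglycol ether emulsifier, diluted in water. Efficacy in % scored after 6 days; 100% means all mites killed.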

[3] = log P by HPLC (OECD Guideline 117), method [b] neutral range; format: physicochemical; details: for logP[b]: method [b] neutral range; for chromatographic logP: reversed-phase C18 HPLC column, neutral range, pH 7.8
Procedure: as §1
[b] The LC-MS determination in the neutral range is effected at pH 7.8 with 0.001 molar aqueous ammonium hydrogencarbonate solution and acetonitrile as eluents; linear gradient from 10% acetonitrile to 95% acetonitrile.

[4] = pH 2.7, HPLC method [a], read-out: logP[a]

Compound	logP[a] [1]	logP[b] ([3]; HPLC)	efficacy ([2]; application rate of 500 g/ha) [%]	also measured
Cc1cc(F)c(-n2ncn(N)c2=O)cc1SCC(F)(F)F [Example 211]	2.02	2.01	100	–
CC=Cc1nn(-c2cc([S+]([O-])CC(F)(F)F)c(C)cc2F)c(=O)n1C1CC1 (racemic) [Example 82]	2.48	2.42	100	–
COc1nn(-c2cc(SCC(F)(F)F)c(Cl)cc2F)c(=O)n1C1CC1 [Example 114]	3.32	3.27	100	–
CNn1c(C2CC2)nn(-c2cc([S+]([O-])CC(F)(F)F)c(C)cc2F)c1=O (stereo not shown) [Example 208]	2.09	2.05	100	–
Cc1cc(F)c(-n2nc(C3CC3)n(C3CC3)c2=O)cc1SCC(F)(F)F [Example 65]	3.39	3.33	100	–
COCc1nn(-c2cc(SCC(F)(F)F)c(C)cc2F)c(=O)n1N [Example 198]	2.28	2.22	100	–
COCCOc1nn(-c2cc(SCC(F)(F)F)c(C)cc2F)c(=O)n1C [Example 149]	2.83	2.76	100	–
CCn1c(C(F)(F)F)nn(-c2cc(SCC(F)(F)F)c(C)cc2F)c1=O [Example 57]	3.96	3.88	90	–
Cc1cc(F)c(-n2nc(N(C)C)n(C)c2=O)cc1SCC(F)(F)F [Example 190]	2.84	2.81	90	–
Cc1cc(F)c(-n2nc(C3CCC3)n(C3CC3)c2=O)cc1SCC(F)(F)F [Example 87]	3.85	3.77	100	–
COc1nn(-c2ccc(C)c(SCC(F)(F)F)c2)c(=O)n1C1CC1 [Example 90]	3.74	3.67	100	–
CCCCOc1nn(-c2cc([S+]([O-])CC(F)(F)F)c(C)cc2F)c(=O)n1C1CC1 (stereo not shown) [Example 124]	3.24	3.20	–	efficacy ([2]; application rate of 100 g/ha): 90%
CCOc1nn(-c2cc([S+]([O-])CC(F)(F)F)c(C)cc2F)c(=O)n1C (stereo not shown) [Example 131]	2.13	2.09	90	–
Cc1cc(F)c(-n2nc(C(F)(F)F)n(C3CC3)c2=O)cc1SCC(F)(F)F [Example 59]	3.97	3.91	100	–
Cc1cc(F)c(-n2nc(C)n(C3CC3)c2=O)cc1[S+]([O-])CC(F)(F)F (stereo not shown) [Example 41]	1.85	1.79	90	–
COCCn1c(C(F)(F)F)nn(-c2cc(SCC(F)(F)F)c(C)cc2F)c1=O [Example 89]	3.80	3.73	100	–
CNc1nn(-c2cc(SCC(F)(F)F)c(C)cc2F)c(=O)n1N [Example 218]	2.06	2.04	90	–
Cc1cc(F)c(-n2nc(C3CC3)n(C3CC3)c2=O)cc1[S+]([O-])CC(F)(F)F (racemic) [Example 66]	2.31	2.33	100	–
O=c1n(-c2cc(SCC(F)(F)F)c(Cl)cc2Cl)nc(OCC(F)(F)F)n1C1CC1 [Example 185]	4.14	4.10	90	–
Cc1cc(F)c(-n2nc(S(C)(=O)=O)n(C)c2=O)cc1SCC(F)(F)F [Example 420, 2-{2-Fluoro-4-methyl-5-[(2,2,2-trifluoroethyl)sulphanyl]phenyl}-4-methyl-5-(methylsulphonyl)-2,4-dihydro-3H-1,2,4-triazol-3-one]	–	–	–	chromatographic logP [1, 4]: 2.7; chromatographic logP ([1]; pH 2.7, HPLC, pH 2.7, read-out: log P[a]): 2.7; pest or weed control at 500 g/ha ([2]; application rate of 500 g/ha): 90%; chromatographic logP ([3]; HPLC): 2.77
Cc1cc(F)c(-n2nc(OC(C)C)n(C)c2=O)cc1[S+]([O-])CC(F)(F)F (stereo not shown) [Example 166]	2.48	2.44	90	–
Cc1cc(F)c(-n2c(C)c(C)sc2=NCC(F)(F)F)cc1[S+]([O-])CC(F)(F)F (stereo not shown) [Example 344]	–	–	–	chromatographic logP [1, 4]: 2.17; pest or weed control at 500 g/ha ([2]; application rate of 500 g/ha): 100%; chromatographic logP ([3]; HPLC method [b]): 3.68
Cc1cc(F)c(-n2nc(N(C)C)n(C3CC3)c2=O)cc1[S+]([O-])CC(F)(F)F (racemic) [Example 194]	2.17	2.12	100	–
CCOc1nn(-c2cc(SCC(F)(F)F)c(C)cc2F)c(=O)n1C [Example 129]	3.19	3.14	90	–

Second part, led by results:

logP[a] [1]	logP[b] ([3]; HPLC)	Compound	efficacy ([2]; application rate of 500 g/ha) [%]	also measured
4.18	4.13	Cc1cc(F)c(-n2nc(Br)n(Cc3ccccc3)c2=O)cc1SCC(F)(F)F [Example 440]	100	–
2.13	2.11	COC1=CC(=O)N(c2cc([S+]([O-])CC(F)(F)F)c(Cl)cc2F)C1 (stereo not shown) [Example 324]	100	–
3.22	3.17	CCN(CC)c1nn(-c2cc(SCC(F)(F)F)c(C)cc2F)c(=O)n1N [Example 222]	90	–
4.41	4.32	CCCSc1nn(-c2cc(SCC(F)(F)F)c(C)cc2F)c(=O)n1C1CC1 [Example 265]	100	–
3.22	3.13	O=c1n(-c2cc([S+]([O-])CC(F)(F)F)c(Cl)cc2F)nc(OCC(F)(F)F)n1C1CC1 (racemic) [Example 382]	100	–
3.71	3.64	Cc1cc(F)c(-n2nc(SC(F)(F)F)n(C)c2=O)cc1SCC(F)(F)F [Example 283]	100	–
3.74	3.70	C=CCOc1nn(-c2cc(SCC(F)(F)F)c(C)cc2F)c(=O)n1C1CC1 [Example 375]	100	–
2.85	2.83	Cc1cc(F)c(-n2ncoc2=O)cc1SCC(F)(F)F [Example 454]	90	–
2.34	2.30	CCn1c(Cl)nn(-c2cc([S+]([O-])CC(F)(F)F)c(C)cc2F)c1=O (stereo not shown) [Example 436]	100	–
4.13	4.07	C=CCSc1nn(-c2cc(SCC(F)(F)F)c(C)cc2F)c(=O)n1CC=C [Example 429]	90	–
2.74	2.71	Cc1cc(F)c(-n2nc(NC(C)C)n(N)c2=O)cc1SCC(F)(F)F [Example 224]	90	–
4.13	3.98	CC(C)(C)COc1nn(-c2cc([S+]([O-])CC(F)(F)F)c(Cl)cc2F)c(=O)n1C1CC1 (stereo not shown) [Example 402]	90	–
2.98	2.95	COC1=CC(=O)N(c2ccc(C)c(SCC(F)(F)F)c2)C1 [Example 316]	90	–
3.71	3.75	Cc1cc(F)c(-n2nc(SCC(F)F)n(C3CC3)c2=O)cc1SCC(F)(F)F [Example 258]	90	–
1.90	1.90	COC1=CC(=O)N(c2ccc(C)c([S+]([O-])CC(F)(F)F)c2)C1 (racemic) [Example 317]	90	–
3.05	2.98	CCC[S+]([O-])c1nn(-c2cc(SCC(F)(F)F)c(C)cc2F)c(=O)n1C1CC1 (stereo not shown) [Example 236]	90	–
4.1	4.02	Cc1cc(F)c(-n2nc(C(C)C)n(C3CC3)c2=S)cc1SCC(F)(F)F [Example 494]	100	–
4.06	3.96	CCCOc1nn(-c2cc(SCC(F)(F)F)c(C)cc2F)c(=O)n1CC [Example 400]	100	–
3.99	4.00	Cc1cc(F)c(N2C(=O)C(Cl)=C(Cl)C2=O)cc1SCC(F)(F)F [Example 338]	90	–
2.86	2.81	CCCOc1nn(-c2cc([S+]([O-])CC(F)(F)F)c(C)cc2F)c(=O)n1CC (stereo not shown) [Example 408]	100	–
2.68	2.65	CC[S+]([O-])c1nn(-c2cc(SCC(F)(F)F)c(C)cc2F)c(=O)n1C1CC1 (stereo not shown) [Example 234]	100	–
2.51	2.48	Cc1cc(F)c(-n2nc(N(C)C)n(N)c2=O)cc1SCC(F)(F)F [Example 220]	90	–
3.19	3.12	Cc1cc(F)c(-n2nc(SC(C)C)n(C3CC3)c2=O)cc1[S+]([O-])CC(F)(F)F (stereo not shown) [Example 267]	100	–
4.03	3.96	C=CCn1c(SCC)nn(-c2cc(SCC(F)(F)F)c(C)cc2F)c1=O [Example 428]	100	–
